# Assay results taken from patent publication US12357669B1, “Modification of natural compounds to create products with enhanced health benefits” (priority 2024, dated 2025).
# Test system: patient with continuously active ulcerative colitis (UC)
# Experiment: observations in a patient with continuously active ulcerative colitis (UC)
# Assay type: in vivo, human
# Conditions: components without prior formation of the chelate/complex
# From the text: Many patients with ulcerative colitis have remitting/recurring disease activity which occurs spontaneously at random times. Other factors, such as changes in diet, stress, intercurrent use of medications either to control symptoms of UC or used to treat other conditions, such as antibiotics non steroidal pain medications and steroids, may make inflammation and symptoms worse or better depending on their particular properties.
# Some patients with UC have unremitting continuously active disease which never goes into remission spontaneously. Such patients make excellent study subjects since the action of compounds designed to reduce disease activity and symptoms can be evaluated without the complicating factor of spontaneous changes in disease severity.
# In the patient studied in this report disease activity was observed over several decades and was continuously active with no spontaneous remissions.
substance,measurement,value
iron,amelioration of the symptoms of ulcerative colitis,not seen
